Laboratory results published in US20210236438A1, “COMPOUNDS AND METHODS FOR THE TREATMENT OF AUTISM SPECTRUM DISORDER AND OTHER NEUROLOGICAL OR PSYCHIATRIC DISORDERS” (Tufts Medical Center, Inc., priority 2018, published 2021).
Entries after “also recorded” stand apart in the source; their conditions may differ.

Tests used:
[1] = ip or oral administration; U.S. Pat. No. 3,995,061; cited from earlier work
[2] = U.S. Pat. No. 3,995,061; cited from earlier work
[3] = tested on: vascular endothelial growth factor (VEGF); settings: Jeong et al. 2011; cited from earlier work
[4] = tested on: glucose transporter 1 (GLUT-1); settings: Jeong et al. 2011; cited from earlier work
hnRNP L [5] = assay: Western blot of hnRNP L level in ascochlorin-treated cultured rat primary cortical neurons; format: cell-based; settings: rat embryonic/primary cortical neurons, hnRNP L 60 KDa
Text: (§1) Compounds that modify hnRNP L levels therefore hold promise as lead structures for the development of ASD/mental retardation/neurological disorders.

GADPH = assay: Western blot of control protein level in ascochlorin-treated rat embryonic cortical neurons; format: cell-based
Text: as §1

hnRNP L [6] = settings: Kang et al. 2006, cited from earlier work
BIN1 = settings: human osteosarcoma cells (U2OS), proteome analysis, Kang et al. 2006; cited from earlier work

SMILES | toxicity as assessed by LD50 [1] | tolerability in clinical trials [2] | expression of VEGF [3] | expression of GLUT-1 [4] | level of hnRNP L (hnRNP L [5]) | level of the control protein (GADPH 40 KDa) (GADPH) | hnRNP L protein levels in vitro (in words) (hnRNP L [6]; U2OS osteosarcoma cells) | increase in hnRNP L protein level (hnRNP L [6]; human osteosarcoma cells (U2OS), proteome analysis) | increase in BIN1 protein level (BIN1)
CCOc1c(Cl)c(C)c(C=O)c(O)c1C/C=C(C)/C=C/C1(C)C(C)CCC(=O)C1C (stereo not shown) [4-O-ethyl-ascochlorin] | low toxicity | – | – | – | – | – | – | – | –
COc1c(Cl)c(C)c(C=O)c(O)c1C/C=C(C)/C=C/[C@@]1(C)[C@H](C)CCC(=O)[C@@H]1C [MAC, 4-O-methylascochlorin] | low toxicity | well tolerated | increases the expression | increases the expression | – | – | – | – | –
CC(/C=C/[C@@]1(C)[C@H](C)CCC(=O)[C@@H]1C)=C\Cc1c(O)c(Cl)c(C)c(C=O)c1O [ascochlorin] | – | – | – | – | increases the level of hnRNP L; also recorded: increase hnRNP L levels in neurons; also recorded: increased levels of hnRNP L | does not affect the level of the control protein | increase hnRNP L protein levels in vitro | 12 × | 10 ×
